Results taken from US9708315B2, “1,2,4-triazolo[4,3-a]pyridine compounds and their use as positive allosteric modulators of MGLUR2 receptors” (Janssen Pharmaceutica NV, priority 2013, dated 2017).

What was measured:
Type in all cases: in vivo
male NMRI mice = assay: Phencyclidine (PCP)-induced hyperlocomotion in mice; conditions: Mus musculus, PO, PCP 5 mg/kg s.c., read-out: ED50 PCP (inhibition of PCP-induced hyperlocomotion)
Procedure: On the day of experiments, the mice were brought into the procedural room. They were housed individually and allowed to acclimate for at least a half hour prior to testing. Although the studies were conducted during the light cycle (from 8:00 to 16:00 h), the procedure room was only sparsely lit (3 to 30 LUX) to provide better contrast for the video tracking. Local lighting was used for the injection procedures. During each trial, an individual mouse was placed in an open field arena (grey PVC cylinder with a height of 40 cm and a diameter of 22.5 cm). Each arena was placed on an infrared LED (8×8 LEDs)-lit box (white PVC squared box; 40×40 cm^2; height 12.5 cm). Each mouse was placed in the center of the arena and allowed to explore freely for 30 min. After each trial, the arena was cleaned with a wet and subsequently with a dry cleaning cloth. […] Animal behavior was recorded and analyzed using the Noldus Ethovision XT Video Tracking System (Version 3.1; Noldus, Wageningen, The Netherlands). The total distance traveled (cm) was calculated. […]
Test compound or solvent was administered at a pre-defined time before measurement (standard: 30 min) to male NMRI mice that were challenged with phencyclidine (PCP; 5 mg/kg, s.c.) 30 min before measurement. Activity was measured for a period of 30 min.

[1] = tested on: Adult male CF No 1 albino mice; assay: 6 Hz psychomotor seizure test in mice; conditions: 10 mg/kg p.o.
Procedure: Test compounds were administered using an optimal fluid volume to body fluid ratio. Test compounds were administered to mice in a volume of 0.01 ml/g of body weight (White, H. S., et al., General principles: Experimental selection, quantification, and evaluation of antiepileptic drugs, in Antiepileptic Drugs, Fourth Edition, R. H. Levy, R. H. Mattson, and B. S. Meldrum, Editors. 1995, Raven Press, Ltd.: New York. p. 99-110). The test compound number 6 was administered orally (p.o.). For each of the tests performed on the test compound, a 40% Hydroxypropyl-β-cyclodextrin (Hp-β-CD) stock solution was first prepared and utilized for formulating the test compound number 6 at the desired concentrations for testing via the oral (p.o.) route. Final compound concentrations were administered as suspensions in 20% Hp-β-CD. A 20% Hp-β-CD solution was used for the vehicle groups.
Adult male CF No 1 albino mice (26-35 g) were obtained from Charles River, Portage, Mich. The animals were maintained on an adequate diet (Prolab RMH 3000) and allowed free access to food and water, except during the short time they were removed from their cage for testing. Animals newly received in the laboratory were allowed sufficient time to correct for possible food and water restriction incurred during transit before being employed in testing. All mice were housed in plastic cages in specially constructed rooms with controlled humidity, exchange of air and controlled lighting (12 hours on-12 hours off). The animals were housed, fed, and handled in a manner consistent with the recommendations in the National Council Publication, “Guide for the Care and Use of Laboratory animals.” Experimental Design General Methods Minimal Motor Impairment (MMI):
Groups of four animals each were administered test compounds and each group was tested at one of five time points: 0.25, 0.5, 1, 2, or 4 h post-treatment (White et al. 1995). TPE was determined using the 6 Hz (32 mA) assay. The time (0.25, 0.5, 1, 2, or 4 h post-treatment) at which maximal protection was observed was considered the Time of Peak Effect (TPE). At the TPE determined for this study, or determined previously, compounds were tested in the 6 Hz assay (32 and/or 44 mA), across several doses and comprising doses that elicited little or no protection to full protection. […] Serum Collection for pK/pD Analysis: In various tests, animals were sacrificed following testing, and trunk blood and/or brain tissue (whole brains) was collected for quantification of drug levels. Immediately after testing, animals were decapitated and trunk blood was collected into a BD Vacutainer® tube containing K2EDTA and chilled on ice until centrifugation. […]

male Wiga Wistar rats = assay: Conditioned avoidance response (CAR) test in rats; conditions: Rattus norvegicus, PO, suspension in 20% hydroxypropyl-b-cyclodextrin containing 1% polysorbate 80
Description: The apparatus consisted of an inner box surrounded by an outer box. The inner box was composed of four walls of transparent, synthetic material (length×width×height: 30×30×30 cm), an open top, and a grid floor made of 15 pairs of iron bars (2 mm diameter; 6 mm inter-bar distance). Odd and even bars were connected with a source of alternative current (1.0 mA; Coulbourn Instruments Solid State Shocker/Distributor), which could be interrupted by a switch. The outer box was composed of the same material (length×width×height: 40×40×36 cm), also with an open top, with a distance of 5 cm between the inner and outer box on all sides. To decrease the amount of environmental stimuli, three walls of the outer box were made non-transparent. The front wall was left transparent to allow the necessary inspection of the animal during the test. The upper edge of the outer and inner box served as a target for the rats on which to jump with fore- and hind-paws, respectively. Avoidance Conditioning and Selection of Animals From their arrival in the laboratory on the experimental day, male Wiga Wistar rats (230±30 g) were housed in individual cages provided with bedding material. […] Experimental Sessions The rats were tested 3 times, i.e. at 60, 90 and 120 min after the injection of test compound or solvent. Latency to avoidance was recorded. […]

C[C@H](Oc1ccc(F)cc1F)c1ccn2c(CC3CC3)nnc2c1C(F)(F)F [Compound 6, 3-(Cyclopropylmethyl)-7-[(1S)-1-(2,4-difluorophenoxy)ethyl]-8-(trifluoromethyl)[1,2,4]triazolo[4,3-a]pyridine]
ED50 (male NMRI mice): 28.3 mg/kg | # protected/# tested ([1]; 6 Hz 32 mA, 1 h): 0/4 | # protected/# tested ([1]; 6 Hz 32 mA, 4 h): 0/4 | # protected/# tested ([1]; dose-response, 6 Hz 32 mA, 0.5 h TPE): 6/8 | # protected/# tested ([1]; dose-response, 6 Hz 44 mA, 0.5 h TPE): 0/8 | ED50 (male Wiga Wistar rats): 8.1 mg/kg
